Results published in US20130131043A1, “PYRAZOLE COMPOUNDS AS JAK INHIBITORS” (priority 2010, published 2013).

How the values were obtained:
JAK2 = biological target: T1, JAK2 (Homo sapiens, UniProt O60674); test: Kinobeads assay, JAK2 (competition binding in cell lysate, dot blot detection); conditions: mixed Molt4/Ramos lysate
T1 construct: endogenous in cells; host or cells: Molt4 (ATCC CRL-1582) and Ramos (ATCC CRL-1596) cell lysate; mixed Molt4/Ramos lysate 1:2
Experimental: (§1) The compounds of the present invention as described in the previous examples were tested in a Kinobeads™ assay as described for ZAP-70 (WO-A 2007/137867). Briefly, test compounds (at various concentrations) and the affinity matrix with the immobilized aminopyrido-pyrimidine ligand 24 were added to cell lysate aliquots and allowed to bind to the proteins in the lysate sample. After the incubation time the beads with captured proteins were separated from the lysate. Bound proteins were then eluted and the presence of JAK2 and JAK3 was detected and quantified using specific antibodies in a dot blot procedure and the Odyssey infrared detection system. Dose response curves for individual kinases were generated and IC50 values calculated. Kinobeads™ assays for ZAP-70 (WO-A 2007/137867) and for kinase selectivity profiling (WO-A 2006/134056) have been previously described.
(§2) 5×DP buffer: 250 mM Tris-HCl pH 7.4, 25% Glycerol, 7.5 mM MgCl2, 750 mM NaCl, 5 mM Na3VO4; filter the 5×DP buffer through a 0.22 μm filter and store in aliquots at −80° C. The 5×DP buffer is diluted with H2O to 1×DP buffer containing 1 mM DTT and 25 mM NaF.
(§3) Stock solutions of test compounds were prepared in DMSO. In a 96 well plate 30 μL solution of diluted test compounds at 5 mM in DMSO were prepared. Starting with this solution a 1:3 dilution series (9 steps) was prepared. For control experiments (no test compound) a buffer containing 2% DMSO was used.
(§4) Molt4 cells (ATCC catalogue number CRL-1582) and Ramos cells (ATCC catalogue number CRL-1596) were grown in 1 L Spinner flasks (Integra Biosciences, #182101) in suspension in RPMI 1640 medium (Invitrogen, #21875-034) supplemented with 10% Fetal Bovine Serum (Invitrogen) at a density between 0.15×10^6 and 1.2×10^6 cells/mL. Cells were harvested by centrifugation, washed once with 1×PBS buffer (Invitrogen, #14190-094) and cell pellets were frozen in liquid nitrogen and subsequently stored at −80° C. Cells were homogenized in a Potter S homogenizer in lysis buffer: 50 mM Tris-HCl, 0.8% NP40, 5% glycerol, 150 mM NaCl, 1.5 mM MgCl2, 25 mM NaF, 1 mM sodium vanadate, 1 mM DTT, pH 7.5. One complete EDTA-free tablet (protease inhibitor cocktail, Roche Diagnostics, 1873580) per 25 mL buffer was added. The material was dounced 10 times using a mechanized POTTER S, transferred to 50 mL falcon tubes, incubated for 30 minutes on ice and spun down for 10 minutes at 20,000 g at 4° C. (10,000 rpm in Sorvall SLA600, precooled). The supernatant was transferred to an ultracentrifuge (UZ)-polycarbonate tube (Beckmann, 355654) and spun for 1 hour at 100.000 g at 4° C. (33.500 rpm in Ti50.2, precooled). The supernatant was transferred again to a fresh 50 mL falcon tube, the protein concentration was determined by a Bradford assay (BioRad) and samples containing 50 mg of protein per aliquot were prepared. The samples were immediately used for experiments or frozen in liquid nitrogen and stored frozen at −80° C.
(§5) Cell lysate (approximately 50 mg protein per plate) was thawed in a water bath at room temperature and then stored on ice. To the thawed cell lysate 1×DP 0.8% NP40 buffer containing protease inhibitors (1 tablet for 25 mL buffer; EDTA-free protease inhibitor cocktail; Roche Diagnostics 1873580) was added in order to reach a final protein concentration of 10 mg/mL total protein. The diluted cell lysate was stored on ice. Mixed Molt4/Ramos lysate was prepared by combining one volume of Molt4 lysate and two volumes of Ramos lysate (ratio 1:2).
(§6) Plates were sealed and incubated for 3 hours in a cold room on a plate shaker (Heidolph tiramax 1000) at 750 rpm. Afterwards the plate was washed 3 times with 230 μL washing buffer (1×DP 0.4% NP40). The filter plate was placed on top of a collection plate (Greiner bio-one, PP-microplate 96 well V-shape, 65120) and the beads were then eluted with 20 μL of sample buffer (100 mM Tris, pH 7.4, 4% SDS, 0.00025% bromophenol blue, 20% glycerol, 50 mM DTT). […]

JAK3 = biological target: T2, JAK3 (Homo sapiens, UniProt P52333); test: Kinobeads assay, JAK3 (competition binding in cell lysate, dot blot detection); conditions: mixed Molt4/Ramos lysate
T2 construct: endogenous in cells; host or cells: Molt4 (ATCC CRL-1582) and Ramos (ATCC CRL-1596) cell lysate; mixed Molt4/Ramos lysate 1:2
T2 sequence (P52333 1-1124): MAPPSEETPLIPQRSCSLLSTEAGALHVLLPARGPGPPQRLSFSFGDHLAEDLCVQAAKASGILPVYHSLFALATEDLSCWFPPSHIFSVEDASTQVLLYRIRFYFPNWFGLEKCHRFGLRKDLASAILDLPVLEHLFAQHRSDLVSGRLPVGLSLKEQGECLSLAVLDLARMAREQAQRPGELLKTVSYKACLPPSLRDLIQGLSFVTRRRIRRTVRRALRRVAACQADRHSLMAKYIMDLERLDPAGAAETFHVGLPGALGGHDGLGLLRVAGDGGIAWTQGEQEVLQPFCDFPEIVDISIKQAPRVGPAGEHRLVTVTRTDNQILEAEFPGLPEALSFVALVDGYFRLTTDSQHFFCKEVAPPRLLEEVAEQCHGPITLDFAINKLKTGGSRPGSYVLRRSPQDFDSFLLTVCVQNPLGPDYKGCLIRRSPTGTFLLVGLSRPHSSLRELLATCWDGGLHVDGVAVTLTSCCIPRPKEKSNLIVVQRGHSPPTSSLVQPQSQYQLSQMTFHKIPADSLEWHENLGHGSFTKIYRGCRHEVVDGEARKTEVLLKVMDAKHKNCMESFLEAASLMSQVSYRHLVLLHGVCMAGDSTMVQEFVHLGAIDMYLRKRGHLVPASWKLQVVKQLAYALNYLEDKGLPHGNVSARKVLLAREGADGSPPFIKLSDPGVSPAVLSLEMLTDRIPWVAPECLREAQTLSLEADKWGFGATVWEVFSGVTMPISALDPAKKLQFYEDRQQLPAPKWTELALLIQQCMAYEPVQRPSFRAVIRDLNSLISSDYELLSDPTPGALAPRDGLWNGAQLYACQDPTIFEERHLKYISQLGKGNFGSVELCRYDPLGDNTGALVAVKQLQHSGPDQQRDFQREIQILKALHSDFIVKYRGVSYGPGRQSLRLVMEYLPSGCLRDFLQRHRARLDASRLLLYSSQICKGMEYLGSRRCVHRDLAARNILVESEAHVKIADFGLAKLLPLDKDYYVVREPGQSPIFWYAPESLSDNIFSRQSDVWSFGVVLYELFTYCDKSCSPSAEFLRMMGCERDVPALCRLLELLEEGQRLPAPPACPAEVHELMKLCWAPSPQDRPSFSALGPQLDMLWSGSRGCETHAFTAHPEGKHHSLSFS
Experimental: as §1, §2, §3, §4, §5, §6

T1 sequence (O60674 whole entry): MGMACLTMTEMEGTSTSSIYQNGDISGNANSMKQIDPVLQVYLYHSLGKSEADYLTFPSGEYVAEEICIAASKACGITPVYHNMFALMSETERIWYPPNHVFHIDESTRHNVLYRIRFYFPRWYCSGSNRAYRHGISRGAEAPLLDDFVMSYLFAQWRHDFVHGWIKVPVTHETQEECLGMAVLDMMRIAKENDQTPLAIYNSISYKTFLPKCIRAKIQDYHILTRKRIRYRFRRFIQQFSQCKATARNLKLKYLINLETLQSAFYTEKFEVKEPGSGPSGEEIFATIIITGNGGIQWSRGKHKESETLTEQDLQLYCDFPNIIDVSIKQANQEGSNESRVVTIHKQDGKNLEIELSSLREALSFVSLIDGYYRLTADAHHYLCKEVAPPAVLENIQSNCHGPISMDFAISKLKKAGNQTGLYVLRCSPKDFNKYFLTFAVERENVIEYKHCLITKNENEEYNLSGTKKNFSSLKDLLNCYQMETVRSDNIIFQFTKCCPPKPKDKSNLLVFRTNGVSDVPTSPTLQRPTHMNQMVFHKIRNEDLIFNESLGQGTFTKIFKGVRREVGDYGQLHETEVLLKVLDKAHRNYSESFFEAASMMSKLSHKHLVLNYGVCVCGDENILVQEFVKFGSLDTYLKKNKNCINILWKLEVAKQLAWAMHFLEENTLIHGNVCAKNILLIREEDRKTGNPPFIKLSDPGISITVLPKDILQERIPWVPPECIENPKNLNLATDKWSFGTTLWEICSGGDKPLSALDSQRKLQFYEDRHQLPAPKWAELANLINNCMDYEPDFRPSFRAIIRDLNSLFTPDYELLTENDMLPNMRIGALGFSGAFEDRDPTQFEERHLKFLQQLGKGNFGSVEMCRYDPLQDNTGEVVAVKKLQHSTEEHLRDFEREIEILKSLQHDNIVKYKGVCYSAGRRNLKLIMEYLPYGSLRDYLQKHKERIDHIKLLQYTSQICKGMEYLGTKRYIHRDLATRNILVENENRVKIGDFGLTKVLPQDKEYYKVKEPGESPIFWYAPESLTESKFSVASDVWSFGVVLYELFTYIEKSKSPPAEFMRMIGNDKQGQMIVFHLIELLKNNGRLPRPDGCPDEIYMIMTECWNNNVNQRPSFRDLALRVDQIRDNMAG

| IC50 (JAK2) [nM] | IC50 (JAK3) [nM] | SMILES |
| --- | --- | --- |
| 1000 to 10000 | 100 to 1000 | Cn1cc(Nc2ncc3cnn(CC4CCCN(C(=O)C(F)(F)F)C4)c3n2)cn1 (stereo not drawn) [Example 47, 2,2,2-trifluoro-1-(3-((6-((1-methyl-1H-pyrazol-4-yl)amino)-1H-pyrazolo[3,4-d]pyrimidin-1-yl)methyl)piperidin-1-yl)ethanone] |
| > 10000 | < 100 | CSCCN1CCCC(Cn2ncc3cnc(Nc4cnn(C)c4)nc32)C1 (stereo not drawn) [Example 37, N-(1-methyl-1H-pyrazol-4-yl)-1-((1-(2-(methylthio)ethyl)piperidin-3-yl)methyl)-1H-pyrazolo[3,4-d]pyrimidin-6-amine] |
| > 10000 | 100 to 1000 | CCS(=O)(=O)N1CCC(Cn2ncc3cnc(Nc4cnn(C)c4)nc32)C1 (stereo not drawn) [Example 42, 1-((1-(ethylsulfonyl)pyrrolidin-3-yl)methyl)-N-(1-methyl-1H-pyrazol-4-yl)-1H-pyrazolo[3,4-d]pyrimidin-6-amine] |
| 1000 to 10000 | < 100 | Cn1cc(Nc2ncc3cnn(CC4CCCN(CCCS(C)(=O)=O)C4)c3n2)cn1 (stereo not drawn) [Example 62, N-(1-methyl-1H-pyrazol-4-yl)-1-((1-(3-(methylsulfonyl)propyl)piperidin-3-yl)methyl)-1H-pyrazolo[3,4-d]pyrimidin-6-amine] |
| > 10000 | 1000 to 10000 | Cn1cc(Nc2ncc3cnn(C4CCCNC4)c3n2)cn1 (stereo not drawn) [Example 10, N-(1-methyl-1H-pyrazol-4-yl)-1-(piperidin-3-yl)-1H-pyrazolo[3,4-d]pyrimidin-6-amine] |
| 1000 to 10000 | < 100 | CN(C)C(=O)N1CCCC(Cn2ncc3cnc(Nc4cnn(C)c4)nc32)C1 (stereo not drawn) [Example 65, N,N-dimethyl-3-((6-((1-methyl-1H-pyrazol-4-yl)amino)-1H-pyrazolo[3,4-d]pyrimidin-1-yl)methyl)piperidine-1-carboxamide] |
| 1000 to 10000 | < 100 | CCS(=O)(=O)N1CCCC(Cn2ncc3cnc(Nc4cnn(C)c4)nc32)C1 (stereo not drawn) [Example 31, 1-((1-(ethylsulfonyl)piperidin-3-yl)methyl)-N-(1-methyl-1H-pyrazol-4-yl)-1H-pyrazolo[3,4-d]pyrimidin-6-amine] |
| 1000 to 10000 | < 100 | Cn1cc(Nc2ncc3cnn(CC4CCCN(C(=O)CCS(C)(=O)=O)C4)c3n2)cn1 (stereo not drawn) [Example 23, 1-(3-((6-((1-methyl-1H-pyrazol-4-yl)amino)-1H-pyrazolo[3,4-d]pyrimidin-1-yl)methyl)piperidin-1-yl)-3-(methylsulfonyl)propan-1-one] |
| 1000 to 10000 | < 100 | CCN1CCCC(Cn2ncc3cnc(Nc4cnn(C)c4)nc32)C1 (stereo not drawn) [Example 55, 1-((1-ethylpiperidin-3-yl)methyl)-N-(1-methyl-1H-pyrazol-4-yl)-1H-pyrazolo[3,4-d]pyrimidin-6-amine] |
| 1000 to 10000 | < 100 | CNC(=O)CN1CCCC(Cn2ncc3cnc(Nc4cnn(C)c4)nc32)C1 (stereo not drawn) [Example 64, N-methyl-2-(3-((6-((1-methyl-1H-pyrazol-4-yl)amino)-1H-pyrazolo[3,4-d]pyrimidin-1-yl)methyl)piperidin-1-yl)acetamide] |
| 1000 to 10000 | < 100 | C[C@H]1CCC[C@H](n2ncc3cnc(Nc4cnn(C)c4)nc32)C1 (racemic) [Example 19, Rac-trans-N-(1-methyl-1H-pyrazol-4-yl)-1-(3-methylcyclohexyl)-1H-pyrazolo[3,4-d]pyrimidin-6-amine] |
| > 10000 | 100 to 1000 | CCC(C1CCCCC1)n1ncc2cnc(Nc3cnn(C)c3)nc21 (stereo not drawn) [Example 18, 1-(1-Cyclohexylpropyl)-N-(1-methyl-M-pyrazol-4-yl)-1H-pyrazolo[3,4-c]pyrimidin-6-amine] |
| 1000 to 10000 | < 100 | CCNC(=O)N1CCCC(Cn2ncc3cnc(Nc4cnn(C)c4)nc32)C1 (stereo not drawn) [Example 51, N-ethyl-3-((6-((1-methyl-1H-pyrazol-4-yl)amino)-1H-pyrazolo[3,4-d]pyrimidin-1-yl)methyl)piperidine-1-carboxamide] |
| > 10000 | 100 to 1000 | Cn1cc(Nc2ncc3cnn(CCC4CCCNC4)c3n2)cn1 (stereo not drawn) [Example 30, N-(1-methyl-1H-pyrazol-4-yl)-1-(2-(piperidin-3-yl)ethyl)-1H-pyrazolo[3,4-d]pyrimidin-6-amine] |
| 1000 to 10000 | < 100 | Cn1cc(Nc2ncc3cnn(CC4CCN(CCC#N)C4)c3n2)cn1 (stereo not drawn) [Example 53, 3-(3-((6-((1-methyl-1H-pyrazol-4-yl)amino)-1H-pyrazolo[3,4-d]pyrimidin-1-yl)methyl)pyrrolidin-1-yl)propanenitrile] |
| > 10000 | < 100 | COCC(=O)N1CCCC(Cn2ncc3cnc(Nc4cnn(C)c4)nc32)C1 (stereo not drawn) [Example 21, 2-methoxy-1-(3-((6-((1-methyl-1H-pyrazol-4-yl)amino)-1H-pyrazolo[3,4-d]pyrimidin-1-yl)methyl)piperidin-1-yl)ethanone] |
| > 10000 | 100 to 1000 | CC(C)NC(=O)CN1CCCC(Cn2ncc3cnc(Nc4cnn(C)c4)nc32)C1 (stereo not drawn) [Example 63, N-isopropyl-2-(3-((6-((1-methyl-1H-pyrazol-4-yl)amino)-1H-pyrazolo[3,4-d]pyrimidin-1-yl)methyl)piperidin-1-yl)acetamide] |
| 1000 to 10000 | < 100 | Cn1cc(Nc2ncc3cnn(CC4CCCN(CC(F)F)C4)c3n2)cn1 (stereo not drawn) [Example 67, 1-((1-(2,2-difluoroethyl)piperidin-3-yl)methyl)-N-(1-methyl-1H-pyrazol-4-yl)-1H-pyrazolo[3,4-d]pyrimidin-6-amine] |
